Assay: xn = mol fraction of the nth substance listed
Details: 298.15 K, Liquid, Vibrating tube method

CCC(=O)c1ccccc1 [ethyl phenyl ketone] + Cc1ccccc1
mass density [kg/m3]
Details | x2 = 0 | x2 = 0.1048 | x2 = 0.2025 | x2 = 0.3006 | x2 = 0.3991 | x2 = 0.4998 | x2 = 0.6004 | x2 = 0.7036 | x2 = 0.8028 | x2 = 0.902
20370 kPa | – | – | – | – | – | 956.04 | 941.68 | 926.3 | 910.7 | 893.9
22390 kPa | 1017.5 | 1005.8 | 994.7 | 983 | 970.5 | 957.19 | 942.87 | 927.5 | 911.9 | 895.2
24420 kPa | 1018.5 | 1006.9 | 995.8 | 984 | 971.7 | 958.35 | 944.05 | 928.7 | 913.1 | 896.5
26450 kPa | 1019.5 | 1007.9 | 996.8 | 985.1 | 972.7 | 959.45 | 945.21 | 929.9 | 914.3 | 897.8
28470 kPa | 1020.5 | 1009 | 997.9 | 986.2 | 973.8 | 960.58 | 946.36 | 931.1 | 915.5 | 899
29490 kPa | 1021 | 1009.5 | 998.4 | 986.7 | 974.3 | 961.14 | 946.92 | 931.7 | 916.1 | 899.6
30500 kPa | 1021.6 | 1010 | 998.9 | 987.2 | 974.9 | 961.68 | 947.48 | 932.2 | 916.7 | 900.2
32530 kPa | 1022.5 | 1011 | 999.9 | 988.3 | 976 | 962.77 | 948.6 | 933.4 | 917.9 | 901.4
34550 kPa | 1023.5 | 1012 | 1000.9 | 989.3 | 977 | 963.83 | 949.68 | 934.5 | 919 | 902.6
36580 kPa | 1024.5 | 1013 | 1001.9 | 990.3 | 978 | 964.89 | 950.78 | 935.6 | 920.2 | 903.8
38600 kPa | 1025.5 | 1013.9 | 1002.9 | 991.3 | 979 | 965.93 | 951.82 | 936.7 | 921.2 | 904.9
39620 kPa | 1025.9 | 1014.4 | 1003.4 | 991.8 | 979.6 | 966.46 | 952.38 | 937.2 | 921.8 | 905.2

— the NIST ThermoML archive (doi:10.1016/j.jct.2004.10.011)
